Target: T1, IRAK4 (Homo sapiens, UniProt Q9NWZ3)
T1 construct: endogenous in cells; host or cells: THP-1 cells
T1 sequence (Q9NWZ3 1-460): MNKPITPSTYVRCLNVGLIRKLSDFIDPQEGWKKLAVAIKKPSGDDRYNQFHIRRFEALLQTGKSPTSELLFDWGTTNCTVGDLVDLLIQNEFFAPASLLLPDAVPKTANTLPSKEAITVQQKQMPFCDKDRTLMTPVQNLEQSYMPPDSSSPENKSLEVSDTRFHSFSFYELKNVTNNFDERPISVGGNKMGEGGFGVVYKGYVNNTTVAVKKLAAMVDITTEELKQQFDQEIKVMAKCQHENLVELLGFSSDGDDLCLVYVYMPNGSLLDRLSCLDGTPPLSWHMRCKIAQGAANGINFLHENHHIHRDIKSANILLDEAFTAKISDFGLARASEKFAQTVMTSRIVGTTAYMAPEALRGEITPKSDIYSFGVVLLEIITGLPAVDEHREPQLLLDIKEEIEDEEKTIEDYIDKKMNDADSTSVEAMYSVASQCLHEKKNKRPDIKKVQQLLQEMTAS
Experiment: LVL THP1 HTRF (THP1 Homogeneous Time Resolved Fluorescence)
Assay type: cell-based
Conditions: THP1 cells, 18 h incubation with compound; for DC50: read-out: LVL THP1 HTRF EC50
Procedure: Cell culture media was prepared in a tissue culture hood in a sterile environment by adding 10% FBS and 1% Penicillin Streptomycin to 500 mL no phenol red RPMI 1640 media. The media was filtered through a Nalgene Bottle Top Filter and stored at 4° C.
For Homogenous Time Resolved Fluorescence (HTRF) assays, a Cisbio HTRF kit was used, which included: Lysis Buffer #1 4×, Blocking Reagent #3 100×, 20× Antibody 1 (Anti-IRAK4 d2), 20× Antibody 2 (Anti-IRAK4 k), and Detection Buffer.
The THP1 plates were prepared by the following method. For each dosing plate, a duplicate for CTG assay was prepared. Two THP-1 T-175 flasks could be used to plate one 384 well plate. The cells were collected from two T-175 flasks into 200 mL centrifuge tubes and spun down at 1200 rpm for 10 min. The supernatant was removed completely and cells were resuspended in 7.5 mL cell culture media. To 5 μL of the cell suspension was added 25 μL of media and 30 μL of Trypan Blue stain. The cells were counted using countess (automated cell counter, Thermo Fisher Scientific) twice and the viability and live cell count was recorded. The actual cell count was […] the live cell count. Based on the count, a cell suspension was prepared in colorless RPMI media for a final concentration of 7.5e6 cells/mL. Using Standard cassette multidrop combi, 20 μL of the 7.5e6 cells/mL cell stock was added to entire 384 well plate but for top half of column 1 (negative control) The multidrop combi was always primed to achieve a steady flow and washed after use with 20 mL de-ionized water followed by 20 mL alcohol. The cells were incubated in 5% CO2 incubator at 37° C.
Dosing was conducted using the following method. To dose assay plates and CTG plate was added 20 nL of compounds in DMSO using Echo (Beckman Coulter), and the plates were incubated at 37° C. for 18 h. The compound plates were spun at 1200 rpm for 1 min before dosing. The compound plate was sealed and properly stored during incubation.
After dosing, an HTRF assay was conducted using the following method. The treatment plates (IRAK4_HTRF) were centrifuged at 600 g for 10 min. Using CyBio Felix, Automated liquid handler (Analytikjena), 13 μL cell culture media was removed. To all columns, 7.5 μL lysis buffer was added, and an additional 7.5 μL of lysis buffer was added to column 1(top half, negative control). The plate was incubated on a shaker at room temperature for 2 h. The plate was spun down at 600 g for 5 min. Custom 20×IRAK4 Antibody obtained from CISBIO Anti-IRAK4-d2 (acceptor Ab) and Anti-IRAK4-K (donor Ab) were diluted to 1× antibody mix Using a multichannel repeater, 4 μL of 1× antibody mix was added to each wellThe plate was spun down at 600 g for 5 min and incubated in the dark at room temperature for 18 h The next day (after 18 hrs), HTRF assay plate was spun down at 600 g for 5 min and read at 665/615 nm using a Envision plate reader.

Row | SMILES | LVL THP1 HTRF YMIN | DC50
1 | C[C@H](C#N)Nc1cc(-n2ncc3cc(C#N)cnc32)ncc1-n1cc([C@H]2CC[C@H](CCN3CCN(c4ccc([C@@]5(C)CCC(=O)NC5=O)nc4)[C@@H](C)C3)CC2)nn1 (single isomer, unassigned) [P-289] | 7.7% | 11.3 nM
2 | C[C@H](C#N)Nc1cc(-n2ncc3cc(C#N)cnc32)ncc1-n1cc([C@H]2CC[C@H](CCN3CCN(c4ccc([C@@]5(C)CCC(=O)NC5=O)nc4)[C@@H](C)C3)CC2)nn1 (single isomer, unassigned) [P-290] | 33.6% | 252 nM
3 | C[C@H](C#N)Nc1cc(-n2ncc3cc(C#N)cnc32)ncc1-n1cc([C@H]2CC[C@](O)(CCN3CCN(c4ccc([C@@]5(C)CCC(=O)NC5=O)cc4)[C@@H](C)C3)CC2)nn1 (single isomer, unassigned) [P-291] | −4.4% | 57.7 nM
4 | C[C@H](C#N)Nc1cc(-n2ncc3cc(C#N)cnc32)ncc1-n1cc([C@H]2CC[C@](O)(CCN3CCN(c4ccc([C@@]5(C)CCC(=O)NC5=O)cc4)CC3)CC2)nn1 (single isomer, unassigned) [P-292] | 7.2% | 32 nM
5 | C[C@H](C#N)Nc1cc(-n2ncc3cc(C#N)cnc32)ncc1-n1cc([C@H]2CC[C@](O)(CCN3CCN(c4ccc([C@@]5(C)CCC(=O)NC5=O)cn4)CC3)CC2)nn1 (single isomer, unassigned) [P-293] | 10.5% | 65.8 nM
6 | C[C@H](C#N)Nc1cc(-n2ncc3cc(C#N)cnc32)ncc1-n1cc([C@H]2CC[C@](O)(CCN3CCN(c4ccc([C@@]5(C)CCC(=O)NC5=O)nc4)CC3)CC2)nn1 (single isomer, unassigned) [P-294] | 76.0% | 1230 nM
7 | C[C@H](C#N)Nc1cc(-n2ncc3cc(C#N)cnc32)ncc1-n1cc([C@H]2CC[C@](O)(CCN3CCN(c4ccc([C@@]5(C)CCC(=O)NC5=O)nc4)CC3)CC2)nn1 (single isomer, unassigned) [P-295] | 39.8% | 350 nM
8 | COc1cc([C@@]2(C)CCC(=O)NC2=O)ccc1N1CCN(CC[C@H]2CC[C@H](c3cn(-c4cnc(-n5ncc6cc(C#N)c(N)nc65)cc4N[C@H](C)C#N)nn3)CC2)C[C@@H]1C (single isomer, unassigned) [P-302] | 3.3% | 10.5 nM
9 | COc1cc([C@@]2(C)CCC(=O)NC2=O)ccc1N1CCN(CC[C@H]2CC[C@H](c3cn(-c4cnc(-n5ncc6cc(C#N)c(N)nc65)cc4N[C@H](C)C#N)nn3)CC2)C[C@@H]1C (single isomer, unassigned) [P-303] | 90.1% | 111 nM
10 | COc1cc([C@@]2(C)CCC(=O)NC2=O)ccc1N1CCN(CC[C@H]2CC[C@H](c3cn(-c4cnc(-n5ncc6cc(C#N)c(N)nc65)cc4N[C@H](C)C#N)nn3)CC2)C[C@H]1C (single isomer, unassigned) [P-304] | 5.0% | 11.9 nM
11 | COc1cc([C@@]2(C)CCC(=O)NC2=O)ccc1N1CCN(CC[C@H]2CC[C@H](c3cn(-c4cnc(-n5ncc6cc(C#N)c(N)nc65)cc4N[C@H](C)C#N)nn3)CC2)C[C@H]1C (single isomer, unassigned) [P-305] | 84.3% | 0.2 nM
12 | C[C@H](C#N)Nc1cc(-n2ncc3cc(C#N)c(N)nc32)ncc1-n1cc([C@H]2CC[C@H](CCN3CCN(c4ccc([C@@]5(C)CCC(=O)NC5=O)nc4)CC3)CC2)nn1 (single isomer, unassigned) [P-306] | 1.5% | 3.7 nM
13 | C[C@H](C#N)Nc1cc(-n2ncc3cc(C#N)c(N)nc32)ncc1-n1cc([C@H]2CC[C@H](CCN3CCN(c4ccc([C@@]5(C)CCC(=O)NC5=O)nc4)CC3)CC2)nn1 (single isomer, unassigned) [P-307] | 86.3% | 6.6 nM
14 | C[C@H](C#N)Nc1cc(-n2ncc3cc(C#N)c(N)nc32)ncc1-n1cc([C@H]2CC[C@H](CCN3CCN(c4ccc([C@@]5(C)CCC(=O)NC5=O)nn4)CC3)CC2)nn1 (single isomer, unassigned) [P-308] | 3.5% | 2.1 nM
15 | C[C@H](C#N)Nc1cc(-n2ncc3cc(C#N)c(N)nc32)ncc1-n1cc([C@H]2CC[C@H](CCN3CCN(c4ccc([C@@]5(C)CCC(=O)NC5=O)nn4)CC3)CC2)nn1 (single isomer, unassigned) [P-309] | 96.8% | 1000 nM
16 | C[C@H](C#N)Nc1cc(-n2ncc3cc(C#N)cnc32)ncc1-n1cc([C@H]2CC[C@H](CCN3CC[C@H]4[C@@H]3CCN4c3ccc([C@@]4(C)CCC(=O)NC4=O)cn3)CC2)nn1 (single isomer, unassigned) [P-312] | 7.9% | 13.2 nM
17 | C[C@H](C#N)Nc1cc(-n2ncc3cc(C#N)cnc32)ncc1-n1cc([C@H]2CC[C@H](CCN3CC[C@H]4[C@@H]3CCN4c3ccc([C@@]4(C)CCC(=O)NC4=O)cn3)CC2)nn1 (single isomer, unassigned) [P-313] | 44.9% | 244 nM
18 | C[C@H](C#N)Nc1cc(-n2ncc3cc(C#N)cnc32)ncc1-n1cc([C@H]2CC[C@H](CCN3CC[C@@H](c4ccc([C@@]5(C)CCC(=O)NC5=O)cc4)C(F)(F)C3)CC2)nn1 (single isomer, unassigned) [P-314] | 6.5% | 21.8 nM
19 | C[C@H](C#N)Nc1cc(-n2ncc3cc(C#N)c(N)nc32)ncc1-n1cc([C@H]2CC[C@H](CCN3CCC(c4ccc([C@@]5(F)CCC(=O)NC5=O)cc4)CC3)CC2)nn1 (single isomer, unassigned) [P-317] | 2.0% | 1.3 nM
20 | C[C@H](C#N)Nc1cc(-n2ncc3cc(C#N)c(N)nc32)ncc1-n1cc([C@H]2CC[C@H](CCN3CCC(c4ccc([C@@]5(F)CCC(=O)NC5=O)cc4)CC3)CC2)nn1 (single isomer, unassigned) [P-318] | 47.8% | 374 nM
21 | C[C@H](C#N)Nc1cc(-n2ncc3cc(C#N)c(N4C[C@H]5C[C@@H]4CO5)nc32)ncc1-n1cc([C@H]2CC[C@H](CCN3CCC(c4ccc([C@@]5(F)CCC(=O)NC5=O)cc4)CC3)CC2)nn1 (single isomer, unassigned) [P-319] | 87.9% | 1000 nM
22 | C[C@H](C#N)Nc1cc(-n2ncc3cc(C#N)cnc32)ncc1-n1cc([C@H]2CC[C@H](CCN3C[C@@H]4CN(c5ccc(N6CCC(=O)NC6=O)cc5)C[C@@H]4C3)CC2)nn1 (single isomer, unassigned) [P-323] | 12.0% | 96.7 nM
23 | C[C@H](C#N)Nc1cc(-n2ncc3cc(C#N)cnc32)ncc1-n1cc([C@H]2CC[C@H](CCN3CC[C@H]4[C@@H]3CCN4c3ccc(C4CCC(=O)NC4=O)cc3)CC2)nn1 (single isomer, unassigned) [P-325] | 1.6% | 3.8 nM
24 | C[C@H](C#N)Nc1cc(-n2ncc3cc(C#N)cnc32)ncc1-n1cc([C@H]2CC[C@H](CCN3CC[C@H](c4ccc([C@@]5(F)CCC(=O)NC5=O)cc4)C[C@H]3C)CC2)nn1 (single isomer, unassigned) [P-326] | 0.3% | 4 nM
25 | C[C@H](C#N)Nc1cc(-n2ncc3cc(C#N)cnc32)ncc1-n1cc([C@H]2CC[C@H](CCN3CC[C@H]4[C@@H]3CCN4c3ccc(C4CCC(=O)NC4=O)cc3)CC2)nn1 (single isomer, unassigned) [P-327] | 2.2% | 2.8 nM
